# Assay results as given in patent US11214594B2, “Antimicrobial peptide having synergistic antibacterial effect with antibiotics on multidrug resistant bacteria, and use thereof” (priority 2016, dated 2022).
# Where a SMILES comes first, the peptide text is derived from it.
# How the values were obtained:
# E. coli [1] = assay: microbe, parasite or virus in culture; type: cell-based, Escherichia coli; conditions: 16 h
# How it was run: (§1)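 Peptides were serially diluted twofold in Mueller-Hinton medium and combined 1:1 with bacterial suspensions prepared at 2×10^6 CFU. Readout was the minimal inhibitory concentration, i.e. the lowest concentration with no growth.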
# MDREC 1229 [2] = assay: microbe, parasite or virus in culture; type: cell-based, Escherichia coli
# How it was run: as §1
# MDREC 1238 = type: cell-based, Escherichia coli
# How it was run: as §1
# P. aeruginosa = assay: microbe, parasite or virus in culture; type: cell-based, Pseudomonas aeruginosa
# How it was run: as §1
# MDRAB 12036 = type: cell-based, Acinetobacter baumannii
# How it was run: as §1
# S. typhimurium = assay: microbe, parasite or virus in culture; type: cell-based, Salmonella typhimurium
# How it was run: as §1
# MDRST 8007 = assay: Minimal inhibitory concentration (MIC), single agent; type: cell-based, Salmonella typhimurium; conditions: agent alone
# How it was run: as §1
# MDRST 8009 = type: cell-based, Salmonella typhimurium; conditions: agent alone
# How it was run: as §1
# S. epidermidis = assay: microbe, parasite or virus in culture; type: cell-based, Staphylococcus epidermidis
# How it was run: as §1
# S. aureus = assay: microbe, parasite or virus in culture; type: cell-based, Staphylococcus aureus
# How it was run: as §1
# MRSA 3114 = type: cell-based, Staphylococcus aureus; conditions: 3114
# How it was run: as §1
# MRSA 3126 = type: cell-based, Staphylococcus aureus; conditions: 3126
# How it was run: as §1
# E. coli [3] = assay: MIC of antibiotic during combined treatment with antimicrobial peptide; type: cell-based, Escherichia coli; conditions: E. coli
# How it was run: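 Read-out is the MIC of each combined solution, obtained from MH-medium dilutions of antibiotic added well by well, with a reversed-condition run as well.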
# MDREC 1229 [4] = assay: as above; type: cell-based, Escherichia coli
# How it was run: (§2)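 Strains in MH medium at 2×10^6 CFU/ml were mixed with peptide diluted stepwise (2:1) from its MIC, then antibiotic dilutions in MH medium were added to give the antibiotic MIC. The reversed set-up, peptide titrated against fixed antibiotic, gave the peptide MIC.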
# A. baumannii = assay: MIC of antimicrobial peptide during combined treatment with antibiotic; type: cell-based, Acinetobacter baumannii
# How it was run: as §2
# MDRAB 12035 = assay: as above; type: cell-based, Acinetobacter baumannii
# How it was run: as §2
# [5] = peptide treatment concentration 1 μg/ml
# [6] = peptide treatment concentration 2 μg/ml
# [7] = peptide treatment concentration 4 μg/ml
# [8] = peptide treatment concentration 6 μg/ml
# [9] = peptide treatment concentration 8 μg/ml
# [10] = peptide treatment concentration 16 μg/ml
# [11] = peptide treatment concentration 32 μg/ml
# [12] = peptide treatment concentration 64 μg/ml
# [13] = erythromycin 4 μg/ml (Conc./MIC 1/8)
# [14] = erythromycin 8 μg/ml (Conc./MIC 1/4)
# [15] = erythromycin 16 μg/ml (Conc./MIC 1/2)
# [16] = erythromycin 32 μg/ml (Conc./MIC 1)
# [17] = linezolid 32 μg/ml (Conc./MIC 1/8)
# [18] = linezolid 64 μg/ml (Conc./MIC 1/4)
# [19] = vancomycin 512 μg/ml (Conc./MIC 1/2)
# [20] = vancomycin 1024 μg/ml (Conc./MIC 1)
smiles,measurement,setting,value
"CC[C@H](C)[C@H](NC(=O)[C@H](CCCCN)NC(=O)[C@H](Cc1c[nH]c2ccccc12)NC(=O)[C@@H](N)CCCNC(=N)N)C(=O)N[C@@H](Cc1ccccc1)C(=O)N[C@@H](CCCCN)C(=O)N[C@@H](CCCCN)C(=O)N[C@H](C(=O)N1CCC[C@H]1C(=O)N[C@@H](CCCCN)C(=O)N[C@@H](Cc1ccccc1)C(=O)N[C@@H](CC(C)C)C(=O)N[C@@H](Cc1c[nH]cn1)C(=O)N[C@@H](CO)C(=O)N[C@@H](C)C(=O)N[C@@H](CCCCN)C(=O)N[C@@H](CCCCN)C(=O)N[C@@H](Cc1ccccc1)C(N)=O)[C@@H](C)CC [PapMA-1, RWK IFK KIP KFL HSA KKF-NH2] (H-RWKIFKKIPKFLHSAKKF-NH2; N-terminus assumed)",Minimal inhibitory concentration MIC,E. coli [1],64 µg/mL
same,Minimal inhibitory concentration MIC,MDREC 1229 [2],64 µg/mL
same,"Peptide MIC, peptide alone",MDREC 1229 [2],64 µg/mL
same,Minimal inhibitory concentration MIC,MDREC 1238,64 µg/mL
same,Minimal inhibitory concentration MIC,P. aeruginosa,16 µg/mL
same,Minimal inhibitory concentration MIC,MDRAB 12036,64 µg/mL
same,Minimal inhibitory concentration MIC,S. typhimurium,64 µg/mL
same,Minimal inhibitory concentration MIC,MDRST 8007,64 µg/mL
same,Minimal inhibitory concentration MIC,MDRST 8009,64 µg/mL
same,Minimal inhibitory concentration MIC,S. epidermidis,>128 µg/mL
same,Minimal inhibitory concentration MIC,S. aureus,>128 µg/mL
same,Minimal inhibitory concentration MIC,MRSA 3114,>128 µg/mL
same,Minimal inhibitory concentration MIC,MRSA 3126,>128 µg/mL
same,"Antibiotic MIC, Erythromycin",E. coli [3]; erythromycin combined with peptide at 1 μg/ml,64 µg/mL
same,"Antibiotic MIC, Erythromycin",E. coli [3]; erythromycin combined with peptide at 2 μg/ml,32 µg/mL
same,"Antibiotic MIC, Erythromycin",E. coli [3]; erythromycin combined with peptide at 4 μg/ml,16 µg/mL
same,"Antibiotic MIC, Erythromycin",E. coli [3]; erythromycin combined with peptide at 6 μg/ml,4 µg/mL
same,"Antibiotic MIC, Erythromycin",E. coli [3]; erythromycin combined with peptide at 8 μg/ml,2 µg/mL
same,"Antibiotic MIC, Erythromycin",E. coli [3]; erythromycin combined with peptide at 16 μg/ml,0.5 µg/mL
same,"Antibiotic MIC, Erythromycin",E. coli [3]; erythromycin combined with peptide at 32 μg/ml,0.125 µg/mL
same,"Antibiotic MIC, Erythromycin",E. coli [3]; erythromycin combined with peptide at 64 μg/ml,0 µg/mL
same,"Antibiotic MIC, Linezolid",E. coli [3]; linezolid combined with peptide at 1 μg/ml,128 µg/mL
same,"Antibiotic MIC, Linezolid",E. coli [3]; linezolid combined with peptide at 2 μg/ml,128 µg/mL
same,"Antibiotic MIC, Linezolid",E. coli [3]; linezolid combined with peptide at 4 μg/ml,64 µg/mL
same,"Antibiotic MIC, Linezolid",E. coli [3]; linezolid combined with peptide at 6 μg/ml,16 µg/mL
same,"Antibiotic MIC, Linezolid",E. coli [3]; linezolid combined with peptide at 8 μg/ml,16 µg/mL
same,"Antibiotic MIC, Linezolid",E. coli [3]; linezolid combined with peptide at 16 μg/ml,16 µg/mL
same,"Antibiotic MIC, Linezolid",E. coli [3]; linezolid combined with peptide at 32 μg/ml,8 µg/mL
same,"Antibiotic MIC, Linezolid",E. coli [3]; linezolid combined with peptide at 64 μg/ml,0 µg/mL
same,"Antibiotic MIC, Vancomycin",E. coli [3]; vancomycin combined with peptide at 1 μg/ml,>128 µg/mL
same,"Antibiotic MIC, Vancomycin",E. coli [3]; vancomycin combined with peptide at 2 μg/ml,>128 µg/mL
same,"Antibiotic MIC, Vancomycin",E. coli [3]; vancomycin combined with peptide at 4 μg/ml,>128 µg/mL
same,"Antibiotic MIC, Vancomycin",E. coli [3]; vancomycin combined with peptide at 6 μg/ml,32 µg/mL
same,"Antibiotic MIC, Vancomycin",E. coli [3]; vancomycin combined with peptide at 8 μg/ml,32 µg/mL
same,"Antibiotic MIC, Vancomycin",E. coli [3]; vancomycin combined with peptide at 16 μg/ml,16 µg/mL
same,"Antibiotic MIC, Vancomycin",E. coli [3]; vancomycin combined with peptide at 32 μg/ml,4 µg/mL
same,"Antibiotic MIC, Vancomycin",E. coli [3]; vancomycin combined with peptide at 64 μg/ml,0 µg/mL
same,"Antibiotic MIC, Erythromycin",MDREC 1229 [4]; [5],128 µg/mL
same,"Antibiotic MIC, Linezolid",MDREC 1229 [4]; [5],>128 µg/mL
same,"Antibiotic MIC, Vancomycin",MDREC 1229 [4]; [5],>128 µg/mL
same,"Antibiotic MIC, Erythromycin",MDREC 1229 [4]; [6],32 µg/mL
same,"Antibiotic MIC, Linezolid",MDREC 1229 [4]; [6],128 µg/mL
same,"Antibiotic MIC, Vancomycin",MDREC 1229 [4]; [6],>128 µg/mL
same,"Antibiotic MIC, Erythromycin",MDREC 1229 [4]; [7],16 µg/mL
same,"Antibiotic MIC, Linezolid",MDREC 1229 [4]; [7],64 µg/mL
same,"Antibiotic MIC, Vancomycin",MDREC 1229 [4]; [7],>128 µg/mL
same,"Antibiotic MIC, Erythromycin",MDREC 1229 [4]; [8],8 µg/mL
same,"Antibiotic MIC, Linezolid",MDREC 1229 [4]; [8],64 µg/mL
same,"Antibiotic MIC, Vancomycin",MDREC 1229 [4]; [8],>128 µg/mL
same,"Antibiotic MIC, Erythromycin",MDREC 1229 [4]; [9],4 µg/mL
same,"Antibiotic MIC, Linezolid",MDREC 1229 [4]; [9],32 µg/mL
same,"Antibiotic MIC, Vancomycin",MDREC 1229 [4]; [9],128 µg/mL
same,"Antibiotic MIC, Erythromycin",MDREC 1229 [4]; [10],1 µg/mL
same,"Antibiotic MIC, Linezolid",MDREC 1229 [4]; [10],16 µg/mL
same,"Antibiotic MIC, Vancomycin",MDREC 1229 [4]; [10],16 µg/mL
same,"Antibiotic MIC, Erythromycin",MDREC 1229 [4]; [11],0.25 µg/mL
same,"Antibiotic MIC, Linezolid",MDREC 1229 [4]; [11],8 µg/mL
same,"Antibiotic MIC, Vancomycin",MDREC 1229 [4]; [11],8 µg/mL
same,"Antibiotic MIC, Erythromycin",MDREC 1229 [4]; [12],0 µg/mL
same,"Antibiotic MIC, Linezolid",MDREC 1229 [4]; [12],0 µg/mL
same,"Antibiotic MIC, Vancomycin",MDREC 1229 [4]; [12],0 µg/mL
same,Peptide MIC during treatment with antibiotic,A. baumannii; [13],4 µg/mL
same,Peptide MIC during treatment with erythromycin,A. baumannii; [13],4 µg/mL
same,Peptide MIC during treatment with antibiotic,A. baumannii; [14],4 µg/mL
same,Peptide MIC during treatment with erythromycin,A. baumannii; [14],4 µg/mL
same,Peptide MIC during treatment with antibiotic,A. baumannii; [15],2 µg/mL
same,Peptide MIC during treatment with erythromycin,A. baumannii; [15],2 µg/mL
same,Peptide MIC during treatment with antibiotic,A. baumannii; [16],0 µg/mL
same,Peptide MIC during treatment with erythromycin,A. baumannii; [16],0 µg/mL
same,Peptide MIC during treatment with antibiotic,A. baumannii; [17],4 µg/mL
same,Peptide MIC during treatment with linezolid,A. baumannii; [17],4 µg/mL
same,Peptide MIC during treatment with antibiotic,A. baumannii; [18],4 µg/mL
same,Peptide MIC during treatment with linezolid,A. baumannii; [18],4 µg/mL
same,Peptide MIC during treatment with antibiotic,A. baumannii; linezolid […] (Conc./MIC 1),0 µg/mL
same,Peptide MIC during treatment with linezolid,A. baumannii; linezolid […] (Conc./MIC 1),0 µg/mL
same,Peptide MIC during treatment with antibiotic,A. baumannii; linezolid […] (Conc./MIC 1/2),0.5 µg/mL
same,Peptide MIC during treatment with linezolid,A. baumannii; linezolid […] (Conc./MIC 1/2),0.5 µg/mL
same,Peptide MIC during treatment with antibiotic,A. baumannii; [19],0.25 µg/mL
same,Peptide MIC during treatment with vancomycin,A. baumannii; [19],0.25 µg/mL
same,Peptide MIC during treatment with antibiotic,A. baumannii; [20],0 µg/mL
same,Peptide MIC during treatment with vancomycin,A. baumannii; [20],0 µg/mL
same,Peptide MIC during treatment with antibiotic,A. baumannii; vancomycin […] (Conc./MIC 1/4),0.5 µg/mL
same,Peptide MIC during treatment with vancomycin,A. baumannii; vancomycin […] (Conc./MIC 1/4),0.5 µg/mL
same,Peptide MIC during treatment with antibiotic,A. baumannii; vancomycin […] (Conc./MIC 1/8),4 µg/mL
same,Peptide MIC during treatment with vancomycin,A. baumannii; vancomycin […] (Conc./MIC 1/8),4 µg/mL
same,Peptide MIC during treatment with erythromycin,MDRAB 12035; [13],4 µg/mL
same,MIC of peptide in combination as fraction of the MIC of the peptide alone,MDRAB 12035; erythromycin 8 μg/ml,1/16
same,MIC value of peptide during combined treatment with erythromycin,MDRAB 12035; erythromycin 8 μg/ml (1/4 of its MIC),4 µg/mL
same,Peptide MIC during treatment with erythromycin,MDRAB 12035; [14],4 µg/mL
same,Peptide MIC during treatment with erythromycin,MDRAB 12035; [15],4 µg/mL
same,Peptide MIC during treatment with erythromycin,MDRAB 12035; [16],0 µg/mL
same,Peptide MIC during treatment with linezolid,MDRAB 12035; linezolid 64 μg/ml (Conc./MIC 1/8),4 µg/mL
same,Peptide MIC during treatment with linezolid,MDRAB 12035; linezolid 512 μg/ml (Conc./MIC 1),0 µg/mL
same,Peptide MIC during treatment with linezolid,MDRAB 12035; linezolid […] (Conc./MIC 1/2),1 µg/mL
same,Peptide MIC during treatment with linezolid,MDRAB 12035; linezolid […] (Conc./MIC 1/4),4 µg/mL
same,Peptide MIC during treatment with vancomycin,MDRAB 12035; [19],2 µg/mL
same,Peptide MIC during treatment with vancomycin,MDRAB 12035; [20],1 µg/mL
same,Peptide MIC during treatment with vancomycin,MDRAB 12035; vancomycin […] (Conc./MIC 1/4),4 µg/mL
same,Peptide MIC during treatment with vancomycin,MDRAB 12035; vancomycin […] (Conc./MIC 1/8),4 µg/mL
